These results are taken from patent US9572820B2, “Methods of treating autophagy-associated disorders and related pharmaceutical compositions, diagnostics, screening techniques and kits” (priority 2011, dated 2017).

The test system of one assay is IL-1β. The assay is described as follows: IL-1β secretion from LPS-pretreated BMMs (ELISA). The assay is classed as cell-based, murine. As to conditions: nigericin, 100 nM bafilomycin A1, 1 h. The procedure: FIG. 1X3. induction of autophagy enhances IL-1β secretion. (A) Atg5fl/fl Cre^− and Atg^5fl/fl Cre^+ bone marrow-derived macrophages (BMMs), pretreated overnight with 100 ng/ml LPS, were stimulated for 1 h with the inflammasome agonist nigericin ([…]) with (Starvation; EBSS) or without (Full; full medium) autophagic induction. Cell culture supernatants were assayed for murine IL-1β by ELISA. Data represent mean values±s.d. (nX3); *Po0.05. (B) LPS-pretreated Atg5fl/fl Cre^− and Atg^5fl/fl Cre^+ BMMs were stimulated with […] nigericin for 1 h in OptiMEM and the release of active caspase-1 and IL-1β was determined by immunoblotting. (C) As in (A), assayed for IL-18. Data represent mean values±s.d. (nX3); *Po0.05. (D) LPS-pretreated BMMs were exposed to alum ([…]) for 1 h with or without autophagic induction by starvation. Secreted IL-1β was measured as in (A). Data represent mean values±s.d. (nX3); *Po0.05. (E) LPS-pretreated BMMs were exposed to silica ([…]) for 1 h with or without autophagic induction by starvation. Secreted IL-1β was measured as in (A). Data represent mean values±s.d. (nX3); *Po0.05. (F) BMMs were transfected with scramble (Scr) control siRNA or siRNAs against ASC and NLRP3. After 48 h following transfection, cells were treated overnight with LPS and subjected to nigericin ([…]) and starvation for 1 h. Data represent mean values±s.d. (nX3); *Po0.05. (G) Immunoblot analysis of ASC and NLRP3 knockdowns. (H) BMMs were transfected with scramble
FIG. 2X3 Autophagic pathway progression promotes secretion of inflammasome substrates. (A, B) LPS-pretreated BMMs were treated with […] nigericin (Nig) and 100 nM bafilomycin A1 (Baf) with (Starvation) or without (Full) autophagic induction for 1 h and secreted IL-1β (A) and IL-18 (B) were measured. Data represent mean values+s.d. (nX3); *Po0.05. (C) LPS-pretreated BMMs were treated with […] of silica and 100 nM bafilomycin A1 (Baf) with (Starvation) or without (Full) autophagic induction for 1 h and secreted IL-1β were measured. Data represent mean values±s.d. (nX3); *Po0.05. (D) Colocalization of cathepsin B with the basal autophagic machinery factor LC3 and IL-1b. Fluorescence; LC3 (green, Alexa488), IL-1β (red, Alexa568), and cathepsin B (blue, Alexa633). BMMs from GFP-LC3 knockin mice were treated with LPS and then analysed for immunofluorescence. (E) Colocalization line tracing analysis from images in (D). (F) LPS-pretreated BMMs were treated with […] nigericin and cathepsin B inhibitor CA-074 Me […] , with (Starvation) or without (Full) autophagic induction, for 1 h and secreted IL-1β was measured. […] (G) LPS-pretreated Atg^5fl/fl Cr^+ and Atg^5fl/fl Cre^− BMMs were stimulated with […] nigericin for 1 h in OptiMEM and release of cathepsin B was determined by immunoblotting. […]
On the technique in general: An ELISA detects its analyte on a solid surface through an enzyme-linked reagent.

Another assay concerns caspase 1 p20. The assay is described as follows: Caspase-1 accumulation in BMM by Western blot. Type of assay: cell-based, murine. As to conditions: Atg5fl/fl LysM-Cre− BMM, EBSS. The procedure: (A) Confocal microcopy analysis of caspase-1 colocalization relative to LC3 in GFP-LC3 expressing BMM induced for autophagy by starvation (EBSS) in the presence of bafilomycin A1 for 90 minutes. Scale bar, 5 μM; Arrowheads and insets, LC3+ caspase-l+ positive profiles (colocalization). (B) Pearson's colocalization coefficient for caspase-1 vs. LC3 and IL-1α vs. LC3. (C) Caspase-1 accumulation in Atg5^fl/fl LysM-Cre− or Atg5^fl/fl LysM-Cre+ BMM induced for autophagy in EBSS with or without bafilomycin A1 (BafA1) and subjected to Western blot analysis. (D) IL-1α (culture supernatant ELISA) released from Atg5fl/fl LysM-Cre+ and Atg5fl/fl LysM-Cre− BMM incubated overnight with 100 ng/ml LPS and exposed for 1 h to inflammasome agonist silica (250 μg/ml) in EBSS. Data, means±SE, n≧3; **p<0.01 (t test).
Cells were washed with PBS and lysed with RIPA buffer containing protease inhibitor cocktail (Roche). Cells extracts were analyzed by standard immunoblotting techniques with antibodies to ASC (Enzo Life Science, AL177), procaspase-1 and active caspase-1 (P20) (Cell Signaling, 2225), GFP (Abeam), calpain I (Cell Signaling), p62 (Abeam) and actin (Sigma). Proteins were resolved on a 12% SDS-polyacrylamide gels and transferred to nitrocellulose membranes. The membrane was blocked for 1 h in 5% nonfat dried milk in PBS/Tween 20 (0.1%) and probed with primary antibody overnight at 4° C. […]

For `CO/C1=C\C(C)=C\[C@@H](C)[C@@H](O)[C@@H](C)C/C(C)=C/C=C/[C@H](OC)[C@@H]([C@@H](C)[C@@H](O)[C@H](C)[C@@]2(O)C[C@@H](O)[C@H](C)[C@@H](C(C)C)O2)OC1=O` [bafilomycin A1], the results for the IL-1β secretion entry with IL-1β (basal autophagy only (full medium)) and in the assay with IL-1β (starvation) were “no change” and “decreased IL-1β secretion”, respectively. Further, in the assay on caspase 1 p20, the “levels of caspase 1 p20” value is reported as “abnormally higher levels”.
